Values quoted from earlier work, collected in patent US11318114B2, “Water dispersible mini-tablets comprising Enalapril for treatment of hypertension in a pediatric population and method of preparation thereof” (PHARMATHEN S.A., priority 2014, dated 2022).
≈ marks a conversion by molar mass, not a printed value. Where a name gives a salt, the structure may show the parent alone. Read-outs that look alike come from different tables or passages of the source.

Solubility (alcohol) | Solubility (dimethylformamide) | Solubility (methanol) | Solubility (nonpolar organic solvents) | Solubility (semi polar organic solvents) | Solubility (water) | Solubility in water (water) [mg/mL] | SMILES
soluble | freely soluble | freely soluble | practically insoluble | slightly soluble | sparingly soluble |  | CCOC(=O)[C@H](CCc1ccccc1)N[C@@H](C)C(=O)N1CCC[C@H]1C(=O)O [Enalapril maleate]
 |  |  |  |  |  | 25 (≈ 66.4 mM) | CCOC(=O)[C@H](CCc1ccccc1)N[C@@H](C)C(=O)N1CCC[C@H]1C(=O)O [Enalapril, (2S)-1-{[92S0-1-ethoxy-1-oxo-4phenylbutan-2-yl]amino}pyrrolidine-2carboxylic acid]
